According to patent US12410160B2 (Gilead Sciences, Inc., priority 2021, dated 2025):
pIC50: −log10 of the molar value.

How the values were obtained:
human KHK-C = human KHK-C (Homo sapiens (Human), UniProt P50053); experiment: KHK Biochemical Assay (IC50), ADP-Glo, KHK-C; conditions: ADP-Glo; average of at least two separate assays
In short: (§1)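 His-tagged enzyme expressed in BL21 (DE3), Ni-NTA purified. Compounds, serially diluted 1:3 in DMSO, pre-incubated 30 min with enzyme in 50 mM Hepes pH 7.4, 140 mM KCl, 5 mM MgCl2, 0.01% Triton-X, then ATP and fructose added; 4 h at room temperature. ADP formation read by ADP-Glo luminescence.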

human KHK-A = human KHK-A (Homo sapiens (Human), UniProt P50053); experiment: KHK Biochemical Assay (IC50), ADP-Glo, KHK-A; conditions: ADP-Glo; average of at least two separate assays
human KHK-A, sequence (P50053 other isoform, or with tags, fused parts or gaps): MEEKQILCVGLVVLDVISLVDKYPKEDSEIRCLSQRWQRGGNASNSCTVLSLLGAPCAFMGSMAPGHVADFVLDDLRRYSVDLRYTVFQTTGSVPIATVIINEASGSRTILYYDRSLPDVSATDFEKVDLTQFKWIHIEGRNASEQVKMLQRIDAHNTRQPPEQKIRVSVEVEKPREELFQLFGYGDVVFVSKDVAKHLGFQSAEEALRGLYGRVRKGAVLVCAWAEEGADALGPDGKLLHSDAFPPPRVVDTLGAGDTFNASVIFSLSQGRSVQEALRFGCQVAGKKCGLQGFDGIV
In short: as §1

human KHK-C, sequence (P50053 whole entry): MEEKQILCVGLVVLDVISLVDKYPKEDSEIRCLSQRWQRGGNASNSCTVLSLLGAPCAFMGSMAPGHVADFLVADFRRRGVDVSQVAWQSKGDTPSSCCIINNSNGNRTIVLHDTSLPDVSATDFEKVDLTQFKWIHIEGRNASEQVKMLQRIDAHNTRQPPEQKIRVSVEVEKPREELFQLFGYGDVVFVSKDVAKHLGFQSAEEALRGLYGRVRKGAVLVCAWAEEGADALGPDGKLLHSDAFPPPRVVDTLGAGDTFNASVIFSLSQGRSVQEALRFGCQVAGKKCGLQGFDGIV

Compound	pIC50 (human KHK-C)	pIC50 (human KHK-A)
C[C@H]1CCN1c1nc2c(c(-c3cncc(S(N)(=O)=O)c3)n1)CCC2 [Example 205, 5-[2-[(2S)-2-methylazetidin-1-yl]-6,7-dihydro-5H-cyclopenta[d]pyrimidin-4-yl]pyridine-3-sulfonamide]	6.97	7.10
CNS(=O)(=O)c1cccc(-c2nc(N3CC[C@@H]3C)nc3c2CCC3)c1 [Example 214, N-methyl-3-[2-[(2S)-2-methylazetidin-1-yl]-6,7-dihydro-5H-cyclopenta[d]pyrimidin-4-yl]benzenesulfonamide]	7.42	7.43
C[C@H]1CCN1c1nc2c(c(-c3ccc4c(c3)CCN(C)C4=O)n1)CCC2 [Example 222, (S)-2-methyl-6-(2-(2-methylazetidin-1-yl)-6,7-dihydro-5H-cyclopenta[d]pyrimidin-4-yl)-3,4-dihydroisoquinolin-1(2H)-one]	7.10	7.12
C[C@@H](O)C(=O)NCc1cccc(-c2nc(N3CC[C@@H]3C)nc3c2CCC3)c1 [Example 229, (2R)-2-hydroxy-N-[[3-[2-[(2S)-2-methylazetidin-1-yl]-6,7-dihydro-5H-cyclopenta[d]pyrimidin-4-yl]phenyl]methyl]propanamide]	7.02	6.97
C[C@H]1CCN1c1nc2c(c(-c3ccc(C4CNC4)cc3)n1)CCC2 [Example 233, 4-[4-(azetidin-3-yl)phenyl]-2-[(2S)-2-methylazetidin-1-yl]-6,7-dihydro-5H-cyclopenta[d]pyrimidine]	8.01	7.25
C[C@H]1CCN1c1nc2c(c(-c3ccc4nc(C(F)(F)F)[nH]c4c3)n1)CCC2 [Example 241, 6-[2-[(2S)-2-methylazetidin-1-yl]-6,7-dihydro-5H-cyclopenta[d]pyrimidin-4-yl]-2-(trifluoromethyl)-1H-benzimidazole]	5.97	6.10
C[C@H]1CCN1c1nc2c(c(-c3ccc4[nH]nc(C(F)(F)F)c4c3)n1)CCC2 [Example 243, 5-[2-[(2S)-2-methylazetidin-1-yl]-6,7-dihydro-5H-cyclopenta[d]pyrimidin-4-yl]-3-(trifluoromethyl)-1H-indazole]	< 5.30	< 5.30
C[C@H]1CCN1c1nc2c(c(-c3cnn(C(F)F)c3)n1)CCC2 [Example 259, 4-[1-(difluoromethyl)pyrazol-4-yl]-2-[(2S)-2-methylazetidin-1-yl]-6,7-dihydro-5H-cyclopenta[d]pyrimidine]	6.51	6.42
C[C@H]1CCN1c1nc2c(c(-c3ccccc3O)n1)CCC2 [Example 260, 2-[2-[(2S)-2-methylazetidin-1-yl]-6,7-dihydro-5H-cyclopenta[d]pyrimidin-4-yl]phenol]	6.20	6.13
C[C@H]1CCN1c1nc2c(c(-c3cccc(O)c3)n1)CCC2 [Example 261, 3-[2-[(2S)-2-methylazetidin-1-yl]-6,7-dihydro-5H-cyclopenta[d]pyrimidin-4-yl]phenol]	6.82	6.87
C[C@H]1CCN1c1nc2c(c(-c3ccc(O)cc3)n1)CCC2 [Example 262, 4-[2-[(2S)-2-methylazetidin-1-yl]-6,7-dihydro-5H-cyclopenta[d]pyrimidin-4-yl]phenol]	6.85	6.74
C[C@H]1CCN1c1nc2c(c(-c3ccc4c(c3)NC(=O)C4(C)C)n1)CCC2 [Example 264, 3,3-dimethyl-6-[2-[(2S)-2-methylazetidin-1-yl]-6,7-dihydro-5H-cyclopenta[d]pyrimidin-4-yl]indolin-2-one]	6.19	6.12
C[C@H]1CCN1c1nc(-c2ccns2)c2c(n1)C1CC1C2 (stereo partly drawn) [Example 273, 5-(2-((S)-2-methylazetidin-1-yl)-5,5a,6,6a-tetrahydrocyclopropa[4,5]cyclopenta[1,241]pyrimidin-4-yl)isothiazole]	6.27	6.36
CNC(=O)c1ccc(-c2nc(N3CC[C@@H]3C)nc3c2CCC3)cn1 [Example 280, (S)—N-methyl-5-(2-(2-methylazetidin-1-yl)-6,7-dihydro-5H-cyclopenta[d]pyrimidin-4-yl)picolinamide]	6.73	6.91
C[C@H]1[C@H](O)CN1c1nc2c(c(-c3cccc(S(N)(=O)=O)c3)n1)CCOC2 [Example 286]	6.12	6.14

The remaining compounds from weak to strong by pIC50 (human KHK-C), led by results:

pIC50 (human KHK-C)	pIC50 (human KHK-A)	Compound
5.25	4.98	C[C@H]1CCN1c1nc(-c2ccccc2)c2cccnc2n1 [Example 212, 2-[(2S)-2-methylazetidin-1-yl]-4-phenyl-pyrido[2,3-d]pyrimidine]
6.31	6.38	C[C@H]1CCN1c1nc2c(c(-c3cccc(C(=O)NCc4ccccc4)c3)n1)CCC2 [Example 218, N-benzyl-3-[2-[(2S)-2-methylazetidin-1-yl]-6,7-dihydro-5H-cyclopenta[d]pyrimidin-4-yl]benzamide]
6.70	6.80	C[C@H]1CCN1c1nc2c(c(-c3cccc(-c4ccn[nH]4)c3)n1)CCC2 [Example 279, (S)-4-(3-(1H-pyrazol-5-yl)phenyl)-2-(2-methylazetidin-1-yl)-6,7-dihydro-5H-cyclopenta[d]pyrimidine]
6.83	6.55	C[C@H]1[C@H](O)CN1c1nc2c(c(-c3ccc(S(N)(=O)=O)cc3)n1)CCC2 [Example 199, 4-[2-[(2S,3R)-3-hydroxy-2-methyl-azetidin-1-yl]-6,7-dihydro-5H-cyclopenta[d]pyrimidin-4-yl]benzenesulfonamide]
6.84	6.80	C[C@H]1CCN1c1nc2c(c(-c3cccc(CNC(=O)C(C)(C)O)c3)n1)CCC2 [Example 228, 2-hydroxy-2-methyl-N-[[3-[2-[(2S)-2-methylazetidin-1-yl]-6,7-dihydro-5H-cyclopenta[d]pyrimidin-4-yl]phenyl]methyl]propanamide]
6.87	7.01	C[C@H]1CCN1c1nc2c(c(-c3ccc(CS(N)(=O)=O)cc3)n1)CCC2 [Example 242, [4-[2-[(2S)-2-methylazetidin-1-yl]-6,7-dihydro-5H-cyclopenta[d]pyrimidin-4-yl]phenyl]methanesulfonamide]
6.97	7.01	C[C@H](O)C(=O)NCc1cccc(-c2nc(N3CC[C@@H]3C)nc3c2CCC3)c1 [Example 230, (2S)-2-hydroxy-N-[[3-[2-[(2S)-2-methylazetidin-1-yl]-6,7-dihydro-5H-cyclopenta[d]pyrimidin-4-yl]phenyl]methyl]propanamide]
6.98	7.10	C[C@H]1CCN1c1nc2c(c(-c3cccc(S(=O)(=O)N(C)C)c3)n1)CCC2 [Example 215, N,N-dimethyl-3-[2-[(2S)-2-methylazetidin-1-yl]-6,7-dihydro-5H-cyclopenta[d]pyrimidin-4-yl]benzenesulfonamide]
7.15	6.93	C[C@H]1CCN1c1nc2c(c(-c3ccc4c(c3)C(=O)NS4(=O)=O)n1)CCC2 [Example 239, (S)-5-(2-(2-methylazetidin-1-yl)-6,7-dihydro-5H-cyclopenta[d]pyrimidin-4-yl)benzo[d]isothiazol-3(2H)-one 1,1-dioxide]
7.32	7.37	C[C@H]1CCN1c1nc2c(c(-c3ccnc(NCCO)c3)n1)CCC2 [Example 282]
